We go through five molecules from US20080306040A1, “Antibacterial amide macrocycles VII” (priority 2005, published 2008).

pIC50: −log10 of the molar value. Counter-ions that a name gives are not always drawn. Like-named read-outs stand apart in the source and are kept apart here. Where only a bound is given, the exact number is not on record here.

Test [1] has as its target S. aureus 133 Translation. The test can be described thus: S. aureus in vitro transcription-translation assay (firefly luciferase, S30 extract). The class given is biochemical. The conditions noted are these: 50% inhibition of the translation of firefly luciferase. The source says: In Vitro Transcription-Translation with S. aureus Extracts
Construction of an S. aureus Luciferase Reporter Plasmid
In order to construct a reporter plasmid which can be used in an in vitro transcription-translation assay from S. aureus the plasmid pBESTluc (Promega Corporation, USA) is used. The E. coli tac promoter present in this plasmid in front of the firefly luciferase is replaced with the capA1 promoter with corresponding Shine-Dalgarno sequence from S. aureus. The primers CAPF or 5′-[…]-[…]-3′ and CAPRev 5′-[…]-3′ are used for this. The primer CAPFor contains the capA1 promoter, the ribosome binding site and the 5′ region of the luciferase gene. After PCR using pBESTluc as template it is possible to isolate a PCR product which contains the firefly luciferase gene with the fused capA1 promoter. This is, after restriction with ClaI and HindIII, ligated into the vector pBESTluc which has likewise been digested with ClaI and HindIII. The resulting plasmid p1a can be replicated in E. coli and be used as template in the S. aureus in vitro transcription-translation test.
Preparation of S30 Extracts from S. aureus
Six litres of BHI medium are inoculated with a 250 ml overnight culture of an S. aureus strain and allowed to grow at 37° C. up to an OD600 nm of 2-4. The cells are harvested by centrifugation and washed in 500 ml of cold buffer A (10 mM Tris acetate, pH 8.0, 14 mM magnesium acetate, 1 mM DTT, […]). After renewed centrifugation, the cells are washed in 250 ml of cold buffer A with 50 mM KCl, and the resulting pellets are frozen at −20° C. for 60 min. The pellets are thawed on ice in 30 to 60 min and taken up to a total volume of 99 ml in buffer B (10 mM Tris acetate, pH 8.0, 20 mM magnesium acetate, 1 mM DTT, 50 mM KCl). 1.5 ml portions of lysostaphin (0.8 mg/ml) in buffer B are provided in 3 precooled centrifuge cups and each mixed with 33 ml of the cell suspension. The samples are incubated at 37° C., for 45 to 60 min shaking occasionally, before 150 μl of a 0.5 M DTT solution are added. The lysed cells are centrifuged at 30 000×g and 4° C. for 30 min. The cell pellet is taken up in buffer B and then centrifuged again under the same conditions, and the collected supernatants are combined. The supernatants are centrifuged again under the same conditions, and 0.25 volumes of buffer C (670 mM Tris acetate, pH 8.0, 20 mM magnesium acetate, 7 mM Na3 phosphoenolpyruvate, 7 mM DTT, 5.5 mM ATP, 70 μM amino acids (complete from Promega), 75 μg of pyruvate kinase (Sigma, Germany))/ml are added to the upper ⅔ of the supernatant. […]
The inhibition of protein biosynthesis of the compounds can be shown in an in vitro transcription-translation assay. […] The activity of the resulting luciferase can be detected by luminescence measurement. […]

For the next test, the system named is S. aureus RN4220. The test can be described thus: Spontaneous resistance rate, S. aureus RN4220. It is filed as cell-based. The conditions noted are these: agar plate containing 2 μg/ml of biphenomycin B (10×MIC), 37° C. overnight. As to the method:
The spontaneous resistance rates for the compounds of the invention are determined as follows: the bacterial microbes are cultivated in 30 ml of a minimal medium (18.5 mM Na2HPO4, 5.7 mM KH2PO4, 9.3 mM NH4Cl, 2.8 mM MgSO4,17.1 mM NaCl, 0.033 μg/ml of thiamine hydrochloride, 1.2 μg/ml of nicotinic acid, 0.003 μg/ml of biotin, 1% glucose, 25 μg/ml of each proteinogenic amino acid with the addition of 0.4% BH broth) at 37° C. over-night, centrifuged at 6000×g for 10 min and resuspended in 2 ml of a phosphate-buffered physiological NaCl solution (about 2×10^9 microbes/ml). […] The resulting colonies (cfu) are counted.
The S. aureus strain RN4220Bi^R is isolated in vitro. For this purpose, 100 μl portions of an S. aureus RN4220 cell suspension (about 1.2×10^8 cfu/ml) are plated out on an antibiotic-free agar plate (18.5 mM Na2HPO4, 5.7 mM KH2PO4, 9.3 mM NH4Cl, 2.8 mM MgSO4, 17.1 mM NaCl, 0.033 μg/ml of thiamine hydrochloride, 1.2 μg/ml of nicotinic acid, 0.003 μg/ml of biotin, 1% glucose, 25 μg/ml of each proteinogenic amino acid with the addition of 0.4% BH broth and 1% agarose) and on an agar plate containing 2 μg/ml of biphenomycin B (10×MIC), and incubated at 37° C. overnight. Whereas about […] cells grow on the antibiotic-free plate, about 100 colonies grow on the antibiotic-containing plate, corresponding to a resistance rate of 1×10^−5. […]

Another test has as its system S. aureus RN4220Bi^R. The test can be described thus: MIC against biphenomycin-resistant S. aureus RN4220Bi^R. It is filed as cell-based. As to conditions: colony isolated in vitro from antibiotic-containing plate. Here is the method:
The S. aureus strain RN4220Bi^R is isolated in vitro. For this purpose, 100 μl portions of an S. aureus RN4220 cell suspension (about 1.2×10^8 cfu/ml) are plated out on an antibiotic-free agar plate (18.5 mM Na2HPO4, 5.7 mM KH2PO4, 9.3 mM NH4Cl, 2.8 mM MgSO4, 17.1 mM NaCl, 0.033 μg/ml of thiamine hydrochloride, 1.2 μg/ml of nicotinic acid, 0.003 μg/ml of biotin, 1% glucose, 25 μg/ml of each proteinogenic amino acid with the addition of 0.4% BH broth and 1% agarose) and on an agar plate containing 2 μg/ml of biphenomycin B (10×MIC), and incubated at 37° C. overnight. Whereas about […] cells grow on the antibiotic-free plate, about 100 colonies grow on the antibiotic-containing plate, corresponding to a resistance rate of 1×10^−5. Some of the colonies grown on the antibiotic-containing plate are tested for the biphenomycin B MIC. One colony with a MIC of >50 μM is selected for further use, and the strain is referred to as RN4220Bi^R.

In a further test the test system is S. aureus T17. The test is described as follows: Minimum inhibitory concentration (MIC), biphenomycin-resistant S. aureus T17. It is filed as cell-based. The conditions noted are these: for MIC: Staphylococcus aureus, T17. As to the method:
(§1) Determination of the Minimum Inhibitory Concentration (MIC)
(§2) The minimum inhibitory concentration (MIC) is the minimum concentration of an antibiotic with which the growth of a test microbe is inhibited over 18-24 h. The inhibitor concentration can thereby be determined by standard microbiological methods (see, for example, The National Committee for Clinical Laboratory Standards. Methods for dilution antimicrobial susceptibility tests for bacteria that grow aerobically; approved standard-fifth edition. NCCLS document M7-A5 [ISBN 1-56238-394-9]. NCCLS, 940 West Valley Road, Suite 1400, Wayne, Pa. 19087-1898 USA, 2000). The MIC of the compounds of the invention is determined in the liquid dilution test on the 96-well microtiter plate scale. The bacterial microbes are cultivated in a minimal medium (18.5 mM Na2HPO4, 5.7 mM KH2PO4, 9.3 mM NH4Cl, 2.8 mM MgSO4, 17.1 mM NaCl, 0.033 μg/ml of thiamine hydrochloride, 1.2 μg/ml of nicotinic acid, 0.003 μg/ml of biotin, 1% glucose, 25 μg/ml of each proteinogenic amino acid with the exception of phenylalanine; [H.-P. Kroll; unpublished]) with addition of 0.4% BH broth (test medium). In the case of Enterococcus faecium L4001, heat-inactivated fetal calf serum (FCS; GibcoBRL, Germany) is added to the test medium in a final concentration of 10%. Overnight cultures of the test microbes are diluted to an OD578 of 0.001 (to 0.01 in the case of enterococci) in fresh test medium, and incubated 1:1 with dilutions of the test substances (1:2 dilution steps) in test medium (200 μl final volume). The cultures are incubated at 37° C. for 18-24 hours; enterococci in the presence of 5% CO2.
(§3) The lowest substance concentration in each case at which no visible bacterial growth occurs any longer is defined as the MIC.
(§4) Alternative Method for Determining the Minimum Inhibitory Concentration (MIC)
(§5) The minimum inhibitory concentration (MIC) is the minimum concentration of an antibiotic with which the growth of a test microbe is inhibited over 18-24 h. The inhibitor concentration can thereby be determined by standard microbiological methods with modified medium in an agar dilution test (see, for example, The National Committee for Clinical Laboratory Standards. Methods for dilution anti-microbial susceptibility tests for bacteria that grow aerobically; approved standard-fifth edition. NCCLS document M7-A5 [ISBN 1-56238-394-9]. NCCLS, 940 West Valley Road, Suite 1400, Wayne, Pa. 19087-1898 USA, 2000). The bacterial microbes are cultivated on 1.5% agar plates which contain 20% defibrinated horse blood. The test microbes, which are incubated overnight on Columbia blood agar plates (Becton-Dickinson), are diluted in PBS, adjusted to a microbe count of about 5×10^5 microbes/ml and placed dropwise (1-3 μl) on test plates. The test substances comprise different dilutions of the test substances (1:2 dilution steps). The cultures are incubated at 37° C. in the presence of 5% CO2 for 18-24 hours.
The lowest substance concentration in each case at which no visible bacterial growth occurs any longer is defined as the MIC and is reported in μg/ml.
The S. aureus strain T17 is isolated in vivo. CFW1 mice are infected intraperitoneally with 4×10^7 S. aureus 133 cells per mouse. 0.5 h after the infection, the animals are treated intravenously with 50 mg/kg of biphenomycin B. The kidneys are removed from the surviving animals on day 3 after the infection. […]

Test [2] concerns S. aureus 133. The test is described as follows: Minimum inhibitory concentration (MIC), S. aureus 133. It is filed as cell-based. As to the method: as §1, §2, §3, §4
as §5, with “The test substances comprise different dilutions of the test substances (1:2 dilution steps). The cultures are incubated at 37° C. in the presence of 5% CO2 for 18-24 hours.” left out

Test [3] concerns S. aureus 133. The test is described as follows: Systemic infection with S. aureus 133 (mouse sepsis model). It is filed as in vivo. As to conditions: female CFW1 mice, i.p. infection, i.v. therapy 30 minutes after infection, survival over 6 days.
Where [4] appears, read: Staphylococcus aureus, 133, read-out: MIC S. aureus 133.

On to `NC[C@H](O)C[C@@H]1NC(=O)[C@@H](N)Cc2cc(ccc2O)-c2ccc(O)c(c2)C[C@@H](C(=O)O)NC1=O` [Biphenomycin B, biphenomycin B, reference compound], for which the pIC50 (usually the IC50 on a negative log10 scale, so that one unit is a factor of ten) in test [1] is 5.82. In the test with S. aureus RN4220, the resistance rate is listed as 1×10^−5. Further, the “MIC of selected colony (strain RN4220Bi^R)” value with S. aureus RN4220Bi^R is > 50 µM. Further, in the test with S. aureus T17 (biphenomycin-resistant strain), the “MIC S. aureus T17” value is >32 µg/mL. The “MIC of selected colony (strain T17)” value in the test on S. aureus T17 (colony isolated in vivo from kidney of treated mice) was > 50 µM. Further, the “MIC S. aureus 133” value in the test with S. aureus 133 [2] was <0.03 µg/mL.
In test [1], `NCCC[C@H](N)CNC(=O)C[C@H](CCCN)NC(=O)C[C@@H]1Cc2cccc(c2)-c2ccc(O)c(c2)C[C@H](N)C(=O)N[C@@H](CCCN)C(=O)N1` [Example 1, (3S)-6-Amino-3-({[(8S11,S14S)-14-amino-11-(3-aminopropyl)-17-hydroxy-10,13-dioxo-9,12-diazatricyclo[14.3.1.1^2,6]henicosa-1(20),2(21),3,5,16,18-hexaen-8-yl]acetyl{amino)-N-[(2S)-2,5-diaminopentyl]hexanamidepentahydrochloride] had a pIC50 of 6.46. In addition, the minimal inhibitory concentration (MIC) (usually the smallest concentration in the dilution series that meets the test's criterion for growth inhibition) turned out to be 2 µg/mL in the test on S. aureus T17 (biphenomycin-resistant strain) and 2 µg/mL with S. aureus 133 [2] (Staphylococcus aureus, 133; read-out: MIC S. aureus 133).
For the molecule `NCCC[C@H](NC(=O)C[C@@H]1Cc2cccc(c2)-c2ccc(O)c(c2)C[C@H](N)C(=O)N[C@@H](CCCN)C(=O)N1)C(=O)NCCN` [Example 2, N^2-{[(8S,11S,14S)-14-Amino-11-(3-aminopropyl)-17-hydroxy-10,13-dioxo-9,12-diazatricyclo[14.3.1.1^2,6]henicosa-1(20), 2(21),3,5,5,16,18-hexaen-8-yl]acetyl}-N-(2-aminoethyl)-L-ornithinamide tetrahydrochloride], the “therapeutic activity ED100” value with S. aureus 133 [3] is on record as 1.25 mg/kg.
As for `NCCC[C@H](N)CNC(=O)C[C@@H]1Cc2cccc(c2)-c2ccc(O)c(c2)C[C@H](N)C(=O)N[C@@H](CCCN)C(=O)N1` [Example 5, 2-[(8S,11S,14S)-14-Amino-11-(3-aminopropyl)-17-hydroxy-10,13-dioxo-9,12-diazatricyclo[14.3.1.1^2,6]henicosa-1(20),2(21),3,5,16,18-hexaen-8-yl]-N-[(2S)-2,5-diaminopentyl]acetamide tetrahydrochloride], the pIC50 in test [1] is 6.15. For the same molecule, the MIC with S. aureus T17 (biphenomycin-resistant strain) and in the test with S. aureus 133 [2] (setting [4]) was 2 µg/mL throughout.
As for `NCCC[C@H](N)CNC(=O)C[C@@H](N)CCCNC(=O)[C@H](CCCN)NC(=O)C[C@@H]1Cc2cccc(c2)-c2ccc(O)c(c2)C[C@H](N)C(=O)N[C@@H](CCCN)C(=O)N1` [Example 7, (3S)-3-Amino-6-[(N^2-{[(8S,11S,14S)-14-amino-11-(3-aminopropyl)-17-hydroxy-10,13-dioxo-9,12-diazatricyclo[14.3.1.1^2,6]henicosa-1(20), 2(21), 3,5,16,18-hexaen-8-yl]acetyl}-L-ornithyl)amino]-N-[(2S)-2,5-diaminopentyl]hexanamide hexahydrochloride], in test [1], the pIC50 was 6.70. Moreover, the minimal inhibitory concentration (MIC) with S. aureus T17 (biphenomycin-resistant strain) and in the test with S. aureus 133 [2] (setting [4]) was 2 µg/mL each time.
